Measured values: patent US11111484B2, “Streptococcus bacteriophage lysins for detection and treatment of gram positive bacteria” (priority 2011, dated 2021)

Experiments:
MRSA strain MW2 = experiment: resistance assay, exposure to incrementally increasing concentrations; assay type: cell-based, Staphylococcus aureus; conditions: concentration doubled daily from 1/32 to 4× MIC over 8 days
MSSA strain 8325 = experiment: as above; assay type: cell-based, Staphylococcus aureus; conditions: MSSA 8325; concentration doubled daily from 1/32 to 4× MIC over 8 days

C/C(=C\C(=O)OCCCCCCCCC(=O)O)C[C@@H]1OC[C@H](C[C@@H]2O[C@H]2[C@@H](C)[C@H](C)O)[C@@H](O)[C@H]1O [mupirocin, reference compound]
development of resistance (MRSA strain MW2): developed resistance | development of resistance (MSSA strain 8325): developed resistance
